# Laboratory results published in publication PMC3914206.
# Target: T1, panel of 442 kinases (Homo sapiens, UniProt P36888, D835Y)
# T1 construct: purchased KINOMEscan
# T1 sequence (P36888 27-993 D835Y): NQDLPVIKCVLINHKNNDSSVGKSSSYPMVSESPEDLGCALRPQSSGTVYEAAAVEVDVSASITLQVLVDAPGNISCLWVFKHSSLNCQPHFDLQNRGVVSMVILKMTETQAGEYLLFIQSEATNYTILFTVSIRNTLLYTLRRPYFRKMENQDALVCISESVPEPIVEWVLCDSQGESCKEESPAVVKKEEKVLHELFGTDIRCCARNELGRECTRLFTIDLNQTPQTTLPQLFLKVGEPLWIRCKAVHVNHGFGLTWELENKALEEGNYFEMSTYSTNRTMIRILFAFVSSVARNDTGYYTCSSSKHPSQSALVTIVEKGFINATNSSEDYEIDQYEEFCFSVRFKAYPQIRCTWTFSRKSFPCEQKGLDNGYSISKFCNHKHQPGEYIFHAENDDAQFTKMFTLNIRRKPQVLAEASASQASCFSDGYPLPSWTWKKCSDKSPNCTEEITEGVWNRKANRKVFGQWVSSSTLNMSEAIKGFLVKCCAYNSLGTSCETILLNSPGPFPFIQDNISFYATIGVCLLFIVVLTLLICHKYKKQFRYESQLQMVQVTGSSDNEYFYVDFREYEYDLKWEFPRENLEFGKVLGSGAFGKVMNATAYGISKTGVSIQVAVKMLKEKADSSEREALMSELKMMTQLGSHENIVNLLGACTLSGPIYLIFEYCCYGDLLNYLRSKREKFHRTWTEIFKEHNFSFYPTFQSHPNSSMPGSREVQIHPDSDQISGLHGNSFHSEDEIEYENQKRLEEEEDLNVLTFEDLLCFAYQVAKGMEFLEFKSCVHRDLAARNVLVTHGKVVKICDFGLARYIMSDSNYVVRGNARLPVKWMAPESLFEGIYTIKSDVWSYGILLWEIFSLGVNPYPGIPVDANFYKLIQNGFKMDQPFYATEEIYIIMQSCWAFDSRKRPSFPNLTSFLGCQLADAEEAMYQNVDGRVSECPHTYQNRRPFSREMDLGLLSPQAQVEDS
# Assay type: binding
# Conditions: Compound Concentration 10 µM
# Text: We assessed the selectivity of members of this scaffold using the KINOMEscan methodology across a near comprehensive panel of 442 kinases [[18,27]].
row,Structure (SMILES),KINOMEscan: FLT3(D835Y)
1,CCOc1cc(C(=O)N2CCC(N3CCN(C)CC3)CC2)ccc1Nc1ncc2c(n1)N(C1CCCC1)c1ccccc1C(=O)N2C [Compound 26],100
2,"COc1cc(C(=O)N2CCC(N3CCN(C)CC3)CC2)ccc1Nc1ncc2c(n1)N(C1CCCC1)c1ccccc1C(=O)N2C [Compound 25, 11-cyclopentyl-2-((2-methoxy-4-(4-(4-methylpiperazin-1-yl)piperidine-1-carbonyl)phenyl)amino)-5-methyl-5H-benzo[e]pyrimido[5,4-b][1,4]diazepin-6(11H)-one]",100
3,COc1cc(C(=O)N2CCC(N3CCN(C)CC3)CC2)ccc1Nc1ncc2c(n1)N(C)c1ccccc1C(=O)N2C [15 (LRRK2-IN-1)],100
